# Measured values: patent publication US8283465B2, “Triazolopyridine compound, and action thereof as prolyl hydroxylase inhibitor or erythropoietin production-inducing agent” (Japan Tobacco Inc., priority 2009, dated 2012)
# Counter-ions that a name gives are not always drawn. Like-named read-outs stand apart in the source and are kept apart here.
# Columns and labels:
# human PHD2 = biological target: T1, human PHD2 (Homo sapiens, UniProt Q9GZT9); experiment: Measurement of human PHD inhibitory activity (TR-FRET, hydroxylation of HIF-1α partial peptide); type: biochemical; conditions: human PHD2 enzyme 1 nM, 25° C. 30 min, values consisting solely of numbers
# T1 construct: made in house; host or cells: Sf9 insect cells (baculovirus, pVL1393 vector)
# T1 sequence (Q9GZT9 whole entry): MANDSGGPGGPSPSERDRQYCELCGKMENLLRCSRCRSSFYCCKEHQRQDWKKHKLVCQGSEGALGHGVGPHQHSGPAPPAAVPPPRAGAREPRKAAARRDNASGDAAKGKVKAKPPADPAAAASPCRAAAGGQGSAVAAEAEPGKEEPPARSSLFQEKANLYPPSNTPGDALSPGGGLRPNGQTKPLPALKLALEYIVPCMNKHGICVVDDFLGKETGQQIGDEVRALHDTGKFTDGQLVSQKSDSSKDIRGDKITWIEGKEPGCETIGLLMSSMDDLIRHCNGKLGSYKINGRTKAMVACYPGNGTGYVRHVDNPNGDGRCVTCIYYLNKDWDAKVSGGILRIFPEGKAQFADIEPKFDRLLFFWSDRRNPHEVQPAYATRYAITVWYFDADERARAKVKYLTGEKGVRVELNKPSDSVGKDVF
# Method: Human PHD2 was expressed in insect cell (Sf9 cell). […] The vector and baculovirus were cotransfected into Sf9, and human PHD2 expression baculovirus was isolated in Sf9. By using the virus, human PHD2-expressed cell was prepared. […] The cell lysate was flowed into a column filled with ANTI-FLAG M2 Affinity Gel Freezer Safe (SIGMA), washed, and the N-terminal FLAG-tag-added human PHD2 was eluted and collected.
# VBC complex (VHL/Elongin B/Elongin C) was expressed in Escherichia coli (BL21(DE3)). […] After these expression vectors were transfected into Escherichia coli (BL21(DE3)), Escherichia coli was cultured at 37° C. in the medium containing IPTG. The collected Escherichia coli was disrupted by sonication and flowed into a column filled with Ni-NTA superflow (QIAGEN), washed, and the product was eluted and collected. The eluate was flowed into a column filled with Glutathione Sepharose 4B, washed, and the product was eluted and collected. […]
# As for human PHD2 enzyme activity, hydroxylation of proline residue contained in the 19 residues of the partial peptide based on the sequence of HIF-1α as a substrate was measured by TR-FRET (Time-Resolved Fluorescence Resonance Energy Transfer) method.
# A test compound and a substrate solution were added to a 96-well plate. The reaction was started by addition of a human PHD2 enzyme solution (final concentration 1 nM) to the reaction system. After incubation at 25° C. for 30 min, a stop solution containing EDTA was added, and a VBC complex solution containing europium (Eu) and Xlent was added, and the amount of hydroxylated proline residue was quantified by time-resolved fluorescence spectroscopy. The time-resolved fluorescence in each well was measured, and the human PHD inhibitory activity (%) of the test compound was calculated based on the values of enzyme non-addition well and test compound non-addition well.
# [1] = tested on: human EPO production, Hep3B cells; experiment: Human EPO production activity in Hep3B cells (EPO-ELISA of culture supernatant); type: cell-based; conditions: for EC50: Homo sapiens, 24 hr incubation, values consisting solely of numbers, read-out: EC50 (μM) in vitro, human EPO production activity; for production activity (%) at 30 μM in vitro, human EPO: 24 hr, values containing %, relative to maximum production
# Method: The activity of the test compound on human EPO production was measured using Hep3B (AMC) established from human liver-derived cell line.
# Hep3B cells were cultured in Eagle-MEM medium containing 10% fetal bovine serum, and the test compound was diluted with dimethyl sulfoxide (DMSO).
# Hep3B cells were cultured in a 96-well plate, and a test compound was added at each concentration 24 hr later. After incubation at 37° C. for 24 hr, the culture supernatant was collected. The concentration of human EPO produced in the culture supernatant was measured using a human EPO-ELISA kit (manufactured by StemCell Technologies, 01630) according to the manufacturer's explanation, and the human EPO production activity (%) of the test compound was calculated based on the maximum value of production under the above conditions and the value without addition of the test compound. […] In these Tables, the values consisting solely of numbers show EC50 (μM) and those containing % show human EPO production activity (%) at […].
# [2] = read-out: IC50 (μM) in vitro, human PHD inhibitory activity
Compound,IC50 (human PHD2; [2]),EC50 [1],"production activity (%) at 30 μM in vitro, human EPO [1]","IC50 (human PHD2; IC50 (μM) in vitro, human PHD inhibitory activity)","EC50 ([1]; Hep3B, 24 h)"
"O=C(O)CNC(=O)c1c(O)cc(-c2cc(Cl)cc(C3CC3)c2)c2ncnn12 [Example 103, {[8-(3-chloro-5-cyclopropylphenyl)-6-hydroxy[1,2,4]triazolo[1,5-a]pyridine-5-carbonyl]amino} acetic acid hydrochloride]",0.18 µM,6.9 µM,,,
"Cc1cc(F)cc(-c2cc(O)c(C(=O)NCC(=O)O)c3ncnn23)c1 [Example 79, {[5-(3-fluoro-5-methylphenyl)-7-hydroxy[1,2,4]triazolo[1,5-a]pyridine-8-carbonyl]amino} acetic acid hydrochloride]",0.23 µM,7.8 µM,,,
"O=C(O)CNC(=O)c1c(O)cc(C2CCCC2)n2ncnc12 [Example 30, [(5-cyclopentyl-7-hydroxy[1,2,4]triazolo[1,5-a]pyridine-8-carbonyl)amino]acetic acid hydrochloride]",0.98 µM,15.4 µM,,,
"O=C(O)CNC(=O)c1c(O)cc(CCc2ccc(C(F)(F)F)cc2)n2ncnc12 [Example 16, ({7-hydroxy-5-[2-(4-trifluoromethyl-phenyl)ethyl][1,2,4-]triazolo[1,5-a]pyridine-8-carbonyl}amino)acetic acid hydrochloride]",0.32 µM,7 µM,,,
"O=C(O)CNC(=O)c1c(O)cc(-c2ccc(F)c(C(F)(F)F)c2)n2ncnc12 [Example 1, {[5-(4-fluoro-3-trifluoromethylphenyl)-7-hydroxy[1,2,4]triazolo[1,5-a]pyridine-8-carbonyl]amino}acetic acid hydrochloride]",0.42 µM,9.9 µM,,,
"O=C(O)CNC(=O)c1c(O)cc(C2CCCCCC2)n2ncnc12 [Example 58, [(5-cycloheptyl-7-hydroxy[1,2,4]triazolo[1,5-a]pyridine-8-carbonyl)amino] acetic acid hydrochloride]",0.55 µM,4.7 µM,,,
"O=C(O)CNC(=O)c1c(O)cc(CCc2cc(F)cc(F)c2)c2ncnn12 [Example 109, ({8-[2-(3,5-difluoro-phenyl)-ethyl]-6-hydroxy[1,2,4]triazolo[1,5-a]pyridine-5-carbonyl}amino) acetic acid hydrochloride]",0.17 µM,13.7 µM,,,
"O=C(O)CNC(=O)c1c(O)cc(-c2cc(F)cc(C(F)(F)F)c2)c2ncnn12 [Example 104, {[8-(3-fluoro-5-trifluoromethyl-phenyl)-6-hydroxy[1,2,4]triazolo[1,5-a]pyridine-5-carbonyl]amino} acetic acid hydrochloride]",0.19 µM,6.3 µM,,,
"O=C(O)CNC(=O)c1c(O)cc(-c2ccc(F)cc2)n2ncnc12 [Example 32, {[5-(4-fluorophenyl)-7-hydroxy[1,2,4]triazolo[1,5-a]pyridine-8-carbonyl]ammino}acetic acid hydrochloride]",0.38 µM,15.6 µM,,,
"O=C(O)CNC(=O)c1c(O)c(CCc2ccccc2)cn2ncnc12 [Example 5, [(7-hydroxy-6-phenethyl[1,2,4]triazolo[1,5-a]pyridine-8-carbonyl)amino]acetic acid hydrochloride]",1.17 µM,11.5 µM,,,
"O=C(O)CNC(=O)c1c(O)cc(-c2ccccc2F)n2ncnc12 [Example 61, {[5-(2-fluorophenyl)-7-hydroxy[1,2,4]triazolo[1,5-a]pyridine-8-carbonyl]amino} acetic acid hydrochloride]",0.22 µM,28.8 µM,,,
"O=C(O)CNC(=O)c1c(O)cc(-c2ccc(F)cc2F)n2ncnc12 [Example 77, {[5-(2,4-difluorophenyl)-7-hydroxy[1,2,4]triazolo[1,5-a]pyridine-8-carbonyl]amino} acetic acid hydrochloride]",0.24 µM,18.7 µM,,,
"Cl.O=C(O)CNC(=O)c1c(O)ccn2c(CCc3ccccc3)nnc12 [Example 114, [(7-hydroxy-3-phenethyl[1,2,4]triazolo[4,3-a]pyridine-8-carbonyl)amino] acetic acid hydrochloride]",1.2 µM,,0%,,
"O=C(O)CNC(=O)c1c(O)cc(-c2ccc(Cl)s2)c2ncnn12 [Example 96, {[8-(5-chlorothiophen-2-yl)-6-hydroxy[1,2,4]triazolo[1,5-a]pyridine-5-carbonyl]amino} acetic acid hydrochloride]",0.29 µM,5.9 µM,,,
"O=C(O)CNC(=O)c1c(O)cc(CCc2ccccc2)n2ncnc12 [Example 2, [(7-hydroxy-5-phenethyl[1,2,4]triazolo[1,5-a]pyridine-8-carbonyl)amino]acetic acid hydrochloride]",,,,0.22 µM,10.9 µM
"O=C(O)CNC(=O)c1c(O)cc(-c2ccccc2Cl)c2ncnn12 [Example 88, {[8-(2-chlorophenyl)-6-hydroxy[1,2,4]triazolo[1,5-a]pyridine-5-carbonyl]amino} acetic acid]",0.16 µM,,14%,,
"O=C(O)CNC(=O)c1c(O)c(Cl)c(CCc2ccccc2)n2ncnc12 [Example 80, [(6-chloro-7-hydroxy-5-phenethyl[1,2,4]triazolo[1,5-a]pyridine-8-carbonyl)amino] acetic acid hydrochloride]",0.71 µM,23.3 µM,,,
"O=C(O)CNC(=O)c1c(O)cc(Cc2ccc(F)cc2)n2ncnc12 [Example 63, acetic acid hydrochloride]",0.36 µM,19.7 µM,,,
"CC(C)(C)CCc1cc(O)c(C(=O)NCC(=O)O)n2ncnc12 [Example 8, {[8-(3,3-dimethyl-butyl)-6-hydroxy[1,2,4]triazolo[1,5-a]pyridine-5-carbonyl]amino}acetic acid hydrochloride]",0.49 µM,13.4 µM,,,
"O=C(O)CNC(=O)c1c(O)cc(-c2cc(F)ccc2F)n2ncnc12 [Example 75, {[5-(2,5-difluorophenyl)-7-hydroxy[1,2,4]triazolo[1,5-a]pyridine-8-carbonyl]amino} acetic acid hydrochloride]",0.21 µM,23.7 µM,,,
"Cl.O=C(O)CNC(=O)c1c(O)cc(Cc2ccccc2)c2ncnn12 [Example 86, [(8-benzyl-6-hydroxy[1,2,4]triazolo[1,5-a]pyridine-5-carbonyl)amino] acetic acid hydrochloride]",0.83 µM,,6%,,
"O=C(O)CNC(=O)c1c(O)cc(-c2cc(F)cc(Cl)c2)n2ncnc12 [Example 41, {[5-(3-chloro-5-fluorophenyl)-7-hydroxy[1,2,4]triazolo[1,5-a]pyridine-8-carbonyl]amino}acetic acid hydrochloride]",0.26 µM,9.1 µM,,,
"O=C(O)CNC(=O)c1c(O)cc(-c2ccc(Cl)cc2F)n2ncnc12 [Example 62, {[5-(4-chloro-2-fluorophenyl)-7-hydroxy[1,2,4]triazolo[1,5-a]pyridine-8-carbonyl]amino} acetic acid hydrochloride]",0.28 µM,10.1 µM,,,
"O=C(O)CNC(=O)c1c(O)ccc2cnnn12 [Example 11, [(6-hydroxy[1,2,3]triazolo[1,5-a]pyridine-7-carbonyl)amino]acetic acid]",0.29 µM,,1%,,
"O=C(O)CNC(=O)c1c(O)cc(-c2ccc(C(F)(F)F)cc2)n2ncnc12 [Example 57, {[7-hydroxy-5-(4-trifluoromethyl-phenyl)[1,2,4]triazolo[1,5-a]pyridine-8-carbonyl]amino} acetic acid hydrochloride]",0.2 µM,4.7 µM,,,
"Cc1cccc(-c2cc(O)c(C(=O)NCC(=O)O)c3ncnn23)c1 [Example 51, [(7-hydroxy-5-(m-tolyl)[1,2,4]triazolo[1,5-a]pyridine-8-carbonyl)amino] acetic acid hydrochloride]",0.26 µM,9.1 µM,,,
"O=C(O)CNC(=O)c1c(O)cc(CCCc2ccccc2)n2ncnc12 [Example 29, {[7-hydroxy-5-(3-phenylpropyl)[1,2,4]triazolo[1,5-a]pyridine-8-carbonyl]amino}acetic acid]",0.92 µM,11.3 µM,,,
